# Results: the NIST ThermoML archive (doi:10.1016/j.jct.2010.07.008)
# Numbers after ± are expanded uncertainties.
# Conditions: Liquid, Closed cell (Static) method
compound,measurement,setting,value
CN(C)CCOCCO [2-(2-dimethylaminoethoxy)ethanol],vapor or sublimation pressure,283.15 K,0.007 ± 0.0003 kPa
same,vapor or sublimation pressure,293.14 K,0.016 ± 0.0006 kPa
same,vapor or sublimation pressure,303.09 K,0.0346 ± 0.0009 kPa
same,vapor or sublimation pressure,313.08 K,0.0707 ± 0.0014 kPa
same,vapor or sublimation pressure,323.28 K,0.1418 ± 0.0022 kPa
same,vapor or sublimation pressure,333.12 K,0.2604 ± 0.0031 kPa
same,vapor or sublimation pressure,343.12 K,0.4742 ± 0.0049 kPa
same,vapor or sublimation pressure,353.14 K,0.8145 ± 0.0077 kPa
same,vapor or sublimation pressure,363.35 K,1.419 ± 0.011 kPa
same,vapor or sublimation pressure,373.1 K,2.315 ± 0.013 kPa
